Test results published in ChEMBL document CHEMBL5346933, “Design and synthesis of novel arylurea derivatives of aryloxy(1-phenylpropyl) alicyclic diamines with antimicrobial activity against multidrug-resistant Gram-positive bacteria” (Eur J Med Chem, 2023).
≈ marks a conversion by molar mass, not a printed value. Calls of active or inactive are those of the source. The rule behind the calls is not given here.

Key:
Type in all cases: functional
Klebsiella pneumoniae = assay: Antibacterial activity against Klebsiella pneumoniae ATCC 700603 assessed as inhibition of bacterial growth incubated for 18 hrs by broth microdilution method
Staphylococcus aureus [1] = assay: Antibacterial activity against methicillin-resistant Staphylococcus aureus clinical strain 19449 assessed as inhibition of bacterial growth incubated for 18 hrs by broth microdilution method
Staphylococcus aureus [2] = assay: Antibacterial activity against methicillin-susceptible Staphylococcus aureus ATCC 25923 assessed as inhibition of bacterial growth incubated for 18 hrs by broth microdilution method
Escherichia coli = assay: Antibacterial activity against Escherichia coli ATCC 25922 assessed as inhibition of bacterial growth incubated for 18 hrs by broth microdilution method
Streptococcus pneumoniae = assay: Antibacterial activity against Streptococcus pneumoniae ATCC 49619 assessed as inhibition of bacterial growth incubated for 18 hrs by broth microdilution method
[3] = test system: Staphylococcus epidermidis; assay: Antibacterial activity against methicillin-susceptible Staphylococcus epidermidis ATCC 12228 assessed as inhibition of bacterial growth incubated for 18 hrs by broth microdilution method
Pseudomonas aeruginosa = assay: Antibacterial activity against Pseudomonas aeruginosa ATCC 27853 assessed as inhibition of bacterial growth incubated for 18 hrs by broth microdilution method
Staphylococcus aureus [4] = assay: Antibacterial activity against biofilm producer Staphylococcus aureus RN450 assessed as inhibition of bacterial growth incubated for 18 hrs by broth microdilution method
Staphylococcus aureus [5] = assay: Antibacterial activity against vancomycin-intermediate Staphylococcus aureus ATCC 700699 assessed as inhibition of bacterial growth incubated for 18 hrs by broth microdilution method
[6] = test system: Staphylococcus epidermidis; assay: Antibacterial activity against linezolid-resistant Staphylococcus epidermidis NIL 4399/19 assessed as inhibition of bacterial growth incubated for 18 hrs by broth microdilution method
[7] = test system: Staphylococcus epidermidis; assay: Antibacterial activity against biofilm producer Staphylococcus epidermidis ATCC 35984 assessed as inhibition of bacterial growth incubated for 18 hrs by broth microdilution method
Enterococcus faecalis = assay: Antibacterial activity against Enterococcus faecalis ATCC 29212 assessed as inhibition of bacterial growth incubated for 18 hrs by broth microdilution method
Enterococcus faecium = assay: Antibacterial activity against vancomycin-resistant Enterococcus faecium assessed as inhibition of bacterial growth incubated for 18 hrs by broth microdilution method

Structure (SMILES) | Activity (Klebsiella pneumoniae) | MIC (Staphylococcus aureus [1]) [µg/mL] | MIC (Staphylococcus aureus [2]) [µg/mL] | Activity (Escherichia coli) | MIC (Streptococcus pneumoniae) [µg/mL] | MIC [3] [µg/mL] | Activity (Pseudomonas aeruginosa) | MIC (Staphylococcus aureus [4]) [µg/mL] | MIC (Staphylococcus aureus [5]) [µg/mL] | MIC [6] [µg/mL] | MIC [7] [µg/mL] | MIC (Enterococcus faecalis) [µg/mL] | MIC (Enterococcus faecium) [µg/mL]
COc1ccccc1OC(CCN1CCC(NC(=O)Nc2cccc(Cl)c2)CC1)c1ccccc1 (stereo unspecified) | inactive | > 12.5 | > 12.5 | inactive | > 12.5 | > 12.5 | inactive | > 12.5 | > 12.5 | > 12.5 | 12.5 (≈ 25.3 µM) | – | –
O=C(Nc1cccc(Cl)c1)N1CCN(CCC(Oc2ccc(C(F)(F)F)cc2)c2ccccc2)CC1 (racemic) | inactive | > 12.5 | > 12.5 | inactive | > 12.5 | > 12.5 | inactive | > 12.5 | > 12.5 | > 12.5 | > 12.5 | – | –
O=C(Nc1ccccc1)NC1CCN(CCC(Oc2ccc(C(F)(F)F)cc2)c2ccccc2)CC1 (racemic) | inactive | > 12.5 | > 12.5 | inactive | > 12.5 | > 12.5 | inactive | > 12.5 | > 12.5 | > 12.5 | 12.5 (≈ 25.1 µM) | – | –
O=C(Nc1cccc(Cl)c1)NC1CCN(CCC(Oc2ccccc2C(F)(F)F)c2ccccc2)CC1 (racemic) | inactive | 3.12 (≈ 5.87 µM) | 3.12 (≈ 5.87 µM) | inactive | 12.5 (≈ 23.5 µM) | 12.5 (≈ 23.5 µM) | inactive | 3.12 (≈ 5.87 µM) | 3.12 (≈ 5.87 µM) | 3.12 (≈ 5.87 µM) | > 12.5 | – | –
O=C(Nc1cccc(Cl)c1)NC1CCN(CCC(Oc2ccccc2F)c2ccccc2)CC1 (racemic) | inactive | 12.5 (≈ 25.9 µM) | 12.5 (≈ 25.9 µM) | inactive | 12.5 (≈ 25.9 µM) | 12.5 (≈ 25.9 µM) | inactive | 6.25 (≈ 13 µM) | 12.5 (≈ 25.9 µM) | 6.25 (≈ 13 µM) | 12.5 (≈ 25.9 µM) | – | –
COc1ccc(OC(CCN2CCC(NC(=O)Nc3cccc(Cl)c3)CC2)c2ccccc2)cc1 (racemic) | inactive | 12.5 (≈ 25.3 µM) | 12.5 (≈ 25.3 µM) | inactive | > 12.5 | 12.5 (≈ 25.3 µM) | inactive | 6.25 (≈ 12.7 µM) | 6.25 (≈ 12.7 µM) | 6.25 (≈ 12.7 µM) | 6.25 (≈ 12.7 µM) | – | –
O=C(Nc1ccc(Cl)cc1)NC1CCN(CCC(Oc2ccc(C(F)(F)F)cc2)c2ccccc2)CC1 (racemic) | inactive | 6.25 (≈ 11.7 µM) | > 12.5 | inactive | 6.25 (≈ 11.7 µM) | > 12.5 | inactive | 1.56 (≈ 2.93 µM) | > 12.5 | > 12.5 | 3.12 (≈ 5.87 µM) | – | –
COc1cccc(OC(CCN2CCC(NC(=O)Nc3cccc(Cl)c3)CC2)c2ccccc2)c1 (racemic) | inactive | 12.5 (≈ 25.3 µM) | 12.5 (≈ 25.3 µM) | inactive | 12.5 (≈ 25.3 µM) | 6.25 (≈ 12.7 µM) | inactive | 3.12 (≈ 6.33 µM) | 12.5 (≈ 25.3 µM) | 6.25 (≈ 12.7 µM) | 6.25 (≈ 12.7 µM) | – | –
O=C(Nc1cccc(Cl)c1)NC1CCN(CCC(Oc2ccccc2)c2ccccc2)CC1 (racemic) | inactive | 12.5 (≈ 26.9 µM) | 6.25 (≈ 13.5 µM) | inactive | 12.5 (≈ 26.9 µM) | 6.25 (≈ 13.5 µM) | inactive | 1.56 (≈ 3.36 µM) | 12.5 (≈ 26.9 µM) | 6.25 (≈ 13.5 µM) | 3.12 (≈ 6.73 µM) | – | –
O=C(O)c1cn(C2CC2)c2cc(N3CCNCC3)c(F)cc2c1=O [CIPROFLOXACIN] | – | – | 0.78 (≈ 2.35 µM) | – | – | 0.78 (≈ 2.35 µM) | – | 0.78 (≈ 2.35 µM) | – | > 12.5 | 0.78 (≈ 2.35 µM) | 0.78 (≈ 2.35 µM) | 0.78 (≈ 2.35 µM)
